ChEMBL document CHEMBL1201862, “PubChem BioAssay data set” (2004)
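Dose response: 5 concentrations. Exposure: 48 h. Format: 96-well plates. Endpoint: linear interpolation; highest concentration if not reached. The concentration for 50% growth inhibition is given as GI50.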 Calls of active or inactive are those of the source. Rule as the data show it: active = GI50 up to about 1.1 µM and inactive = higher.

Columns and labels:
Assay in all cases: growth of human tumour cells (NCI), 48 h
[1] = test system: HCT-116
[2] = test system: UACC-62
[3] = test system: SK-MEL-2
[4] = test system: OVCAR-4
[5] = test system: HT-29
[6] = test system: SK-MEL-5
[7] = test system: HCT-15
[8] = test system: NCI-H522
[9] = test system: KM12
[10] = test system: SF-295
[11] = test system: SF-539
[12] = test system: SK-MEL-28
[13] = test system: HL-60
[14] = test system: UO-31
[15] = test system: SF-268
[16] = test system: SR
[17] = test system: Hs-578T
[18] = test system: SN12C
[19] = test system: 786-0
[20] = test system: MDA-N

Row | Compound | GI50 [1] | GI50 [2] | GI50 [3] | GI50 [4] | GI50 [5] | GI50 [6] | GI50 [7] [nM] | GI50 [8] | GI50 [9] | GI50 [10] | GI50 [11] | GI50 [12] | GI50 [13] | GI50 [14] | GI50 [15] | GI50 [16] | GI50 [17] | GI50 [18] | GI50 [19] | GI50 [20]
1 | COc1ccc2c(c1)c1c3c(ccc4ncn2c43)N(CCO)CCN=1 | 51.2 nM (active) | 216 nM (active) | 175 nM (active) | 221 nM (active) | 136 nM (active) | 188 nM (active) | 195 | 106 nM (active) | 260 nM (active) | 190 nM (active) | 89.3 nM (active) | 327 nM (active) | 165 nM (active) | 104 nM (active) | 221 nM (active) | 19.8 nM (active) | 274 nM (active) | 158 nM (active) | 73.6 nM (active) | 214 nM (active)
2 | O=[N+]([O-])c1ccc(C2CC(c3ccccc3Cl)=Nc3ccccc3[S+]2[O-])cc1 (stereo not given) | 1880 nM (inactive) | 2690 nM (inactive) | 15000 nM (inactive) | 2310 nM (inactive) | 2500 nM (inactive) | 5410 nM (inactive) | 2210 | 1150 nM (inactive) | 3820 nM (inactive) | 5550 nM (inactive) | 7190 nM (inactive) | 5180 nM (inactive) | 1190 nM (inactive) | 2060 nM (inactive) | 8830 nM (inactive) | 2840 nM (inactive) | 2750 nM (inactive) | 2260 nM (inactive) | 1800 nM (inactive) | 9510 nM (inactive)
